Laboratory results: patent US20120289501A1, “Benzene-fused 6-membered oxygen-containing heterocyclic derivatives of bicyclic heteroaryls” (NOVARTIS AG, priority 2009, published 2012)

target: IGF1R (Homo sapiens, UniProt P08069); assay: Cellular IGF-1R assay: inhibition of IGF1R phosphorylation in transduced Hek293 cells, capture ELISA (MSD); assay type: cell-based; set-up: Hek293 cells transduced with the corresponding receptors; expressed in transfected cells; host or cells: Hek293 (Hek293-IGF1R)
Sequence (P08069 31-1367): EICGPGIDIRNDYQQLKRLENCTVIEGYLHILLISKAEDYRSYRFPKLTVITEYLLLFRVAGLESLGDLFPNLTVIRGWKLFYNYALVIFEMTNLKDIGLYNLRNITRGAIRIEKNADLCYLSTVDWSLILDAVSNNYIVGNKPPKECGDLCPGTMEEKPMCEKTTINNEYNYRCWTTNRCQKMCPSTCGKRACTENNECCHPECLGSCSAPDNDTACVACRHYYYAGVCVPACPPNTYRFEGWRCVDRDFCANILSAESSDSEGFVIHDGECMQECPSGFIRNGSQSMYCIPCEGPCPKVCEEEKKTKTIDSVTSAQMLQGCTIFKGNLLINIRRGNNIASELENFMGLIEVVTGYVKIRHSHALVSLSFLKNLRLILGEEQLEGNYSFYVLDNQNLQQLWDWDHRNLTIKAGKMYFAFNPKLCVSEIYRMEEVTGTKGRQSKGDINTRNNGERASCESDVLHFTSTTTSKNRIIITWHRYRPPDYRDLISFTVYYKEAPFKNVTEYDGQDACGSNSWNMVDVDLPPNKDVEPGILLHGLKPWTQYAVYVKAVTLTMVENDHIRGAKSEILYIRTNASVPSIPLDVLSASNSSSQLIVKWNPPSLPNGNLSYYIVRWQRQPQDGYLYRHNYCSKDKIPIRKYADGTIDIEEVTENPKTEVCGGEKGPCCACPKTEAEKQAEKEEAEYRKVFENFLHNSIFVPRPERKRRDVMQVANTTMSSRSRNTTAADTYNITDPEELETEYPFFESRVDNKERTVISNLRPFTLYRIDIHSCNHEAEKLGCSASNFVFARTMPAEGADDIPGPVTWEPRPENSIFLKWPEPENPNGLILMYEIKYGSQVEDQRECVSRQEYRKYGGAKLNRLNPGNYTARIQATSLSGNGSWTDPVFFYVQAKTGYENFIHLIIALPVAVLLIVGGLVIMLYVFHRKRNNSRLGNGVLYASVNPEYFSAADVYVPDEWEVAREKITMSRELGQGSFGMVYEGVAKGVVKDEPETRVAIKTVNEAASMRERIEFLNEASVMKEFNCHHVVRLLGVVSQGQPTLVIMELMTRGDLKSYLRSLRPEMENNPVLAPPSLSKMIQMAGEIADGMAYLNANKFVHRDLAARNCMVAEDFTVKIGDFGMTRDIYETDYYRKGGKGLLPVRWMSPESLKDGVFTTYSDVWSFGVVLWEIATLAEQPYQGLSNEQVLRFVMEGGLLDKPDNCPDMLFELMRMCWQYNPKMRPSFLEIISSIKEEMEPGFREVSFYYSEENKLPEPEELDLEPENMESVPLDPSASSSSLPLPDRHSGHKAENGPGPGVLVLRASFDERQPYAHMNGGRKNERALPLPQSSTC
In short: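 Serum-starved Hek293 cells transduced with IGF1R or InsR were pre-incubated 1 h with 3-fold dilutions from 10 μM (0.1% DMSO), then stimulated 10 min with 1.0 ng/μL IGF or 5.0 ng/μL insulin. pTyr1135/1136 (pINSR Tyr1150/1151) was read by MSD capture ELISA, normalised to stimulated vs unstimulated window; IC50 from 4-parameter fit.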

Row | Compound | IC50 [nM]
1 | Nc1ncnc2c1c(-c1ccc3c(c1)O[C@H](c1ccccc1)CC3)cn2[C@H]1C[C@@H](CN2CCS(=O)(=O)CC2)C1 [Example 25, (S)-7-[cis-3-(1,1-dioxo-thiomorpholin-4-ylmethyl)-cyclobutyl]-5-(2-phenyl-chroman-7-yl)-7H-pyrrolo[2,3-d]pyrimidin-4-ylamine] | 9
2 | Nc1ncnc2c1c(-c1ccc3c(c1)OC(c1ccccc1)CC3)cn2C1CC(CN2CCC(O)CC2)C1 (centres unmarked) [Example 37, 1-{3-[4-Amino-5-(2-phenyl-chroman-7-yl)-pyrrolo[2,3-d]pyrimidin-7-yl]-cyclobutylmethyl}-piperidin-4-ol] | 46
3 | Nc1ncnc2c1c(-c1ccc3c(c1)OC(c1ccccc1)CC3)cn2[C@H]1C[C@@]2(COC(=O)O2)C1 (some centres unmarked) [Example 43, (E)-2-[4-Amino-5-(2-phenyl-chroman-7-yl)-pyrrolo[2,3-d]pyrimidin-7-yl]-5,7-dioxa-spiro[3.4]octan-6-one] | 76
4 | (R,S)—(Z)-3-[8-Amino-1-(2-phenyl-chroman-7-yl)-imidazo[1,5-a]pyrazin-3-yl]-1-hydroxymethyl-cyclobutanol and (R,S)-(E)-3-[8-amino-1-(2-phenyl-chroman-7-yl)-imidazo[1,5-a]pyrazin-3-yl]-1-hydroxymethyl-cyclobutanol [Example 5] | 100
5 | (R,S)—N-{cis-3-[4-Amino-5-(2-phenyl-chroman-7-yl)-pyrrolo[2,3-d]pyrimidin-7-yl]-cyclobutylmethyl}-methanesulfonamide [Example 17] | 24

Other lines, results leading:

Row | IC50 [nM] | Compound
6 | 16 | Nc1ncnc2c1c(-c1ccc3c(c1)OC(c1ccccc1)CC3)cn2[C@H]1C[C@@]2(CNC(=O)O2)C1 (some centres unmarked) [Example 44, (E)-2-[4-Amino-5-(2-phenyl-chroman-7-yl)-pyrrolo[2,3-d]pyrimidin-7-yl]-5-oxa-7-aza-spiro[3.4]octan-6-one]
7 | < 5 | Nc1ncnc2c1c(-c1ccc3c(c1)OC(c1ccccc1)CC3)cn2[C@H]1C[C@@](O)(CN2CCS(=O)(=O)CC2)C1 (some centres unmarked) [Example 45, (E)-3-[4-Amino-5-(2-phenyl-chroman-7-yl)-pyrrolo[2,3-d]pyrimidin-7-yl]-1-(1,1-dioxothiomorpholin-4-ylmethyl)-cyclobutanol]
8 | 49 | CN1CCN(CC2CC(n3cc(-c4ccc5c(c4)OC(c4ccccc4)CC5)c4c(N)ncnc43)C2)CC1=O (centres unmarked) [Example 46, 4-{3-[4-Amino-5-(2-phenyl-chroman-7-yl)-pyrrolo[2,3-d]pyrimidin-7-yl]-cyclobutylmethyl}-1-methyl-piperazin-2-one]
9 | 525 | Nc1ncnc2c1c(-c1ccc3c(c1)OC(c1ccccc1)CC3)cn2[C@H]1C[C@@](O)(Cn2cnnc2)C1 (some centres unmarked) [Example 47, (E)-3-[4-Amino-5-(2-phenyl-chroman-7-yl)-pyrrolo[2,3-d]pyrimidin-7-yl]-1-[1,2,4]triazol-4-ylmethylcyclobutanol]
10 | 202 | Nc1ncnc2c1c(-c1ccc3c(c1)OC1(CCCCC1)CC3)cn2[C@H]1C[C@@H](CN2CCS(=O)(=O)CC2)C1 [Example 53, 7-(cis-3-(1,1-dioxo-thiomorpholin-4-ylmethyl)cyclobutyl)-5-(spiro[chroman-2,1′-cyclohexane]-7-yl)-7H-pyrrolo[2,3-d]pyrimidin-4-amine]
11 | 69 | Nc1ncnc2c1c(-c1ccc3c(c1)OC(c1ccccn1)CC3)cn2C1CC(CN2CC3CC2CS3(=O)=O)C1 [Example 62, 7-[cis-3-((S,S)-2,2-Dioxo-2λ6-thia-5-aza-bicyclo[2,2,1]kept-5-ylmethyl)-cyclobutyl]-5-(2-pyridin-2-yl-chroman-7-yl)-7H-pyrrolo[2,3-d]pyrimidin-4-ylamine]
